# Values joined by “and” are separate entries in the source; they are usually repeats but may differ in a detail not shown here. Equal entries are not always repeated. “Also recorded” adds a separate entry of the source. Where two headings read alike, the source gives them in different places.
# Tests used:
# KCa2 and NaV channels = conditions: cited from earlier work
# [1] = test system: activity-regulated Gln/MeAIB transport (SNAT activity) in hippocampal neurons; assay: Activity-regulated (spontaneous, 4-AP- or K+-stimulated) [14C]-MeAIB transport in primary hippocampal neurons; assay type: cell-based, rat; set-up: block of transport activity: dose or concentration left out as unconfirmed; conditions: for inhibition of spontaneous activity-regulated 14C-MeAIB transport, in words: screens, 10 μM, GABA 2 mM; for relative affinity for PMA-induced K+-activity-stimulated Gln/MeAIB transport activity: PMA 10 min before KCl 60 mM; for inhibition at 10 µM / IC50: Rattus norvegicus, Hippocampal neuron; for inhibition at 10 µM: read-out: block / inhibition of transport activity; for Active (annotation beside the compound name: active vs inactive derivatives): Table 1: SKA-41, and active and inactive derivatives; for potency to inhibit activity-regulated MeAIB transport relative to a comparator, in words: spontaneous and 4-AP stimulated transport
# [2] = test system: activity-regulated Gln/MeAIB transport (SNAT activity) in hippocampal neurons; conditions: cited from earlier work; for block of 14C-MeAIB transport activity: 2 mM; for Km: read-out: Km of the activity-regulated Gln/MeAIB transport system
# SNAT1 or SNAT2 = conditions: cited from earlier work
# [3] = Max. solubility (Table 1); assay type: physicochemical
# NaV1.2 = biological target: T1, NaV1.2 (Mus musculus, UniProt B1AWN6); assay: NaV currents recorded by whole-cell patch clamp from N1E-115 neuroblastoma cells expressing NaV1.2; assay type: cell-based
# T1 construct: N1E-115 cells that constitutively express NaV1.2; endogenous in cells; host or cells: N1E-115 mouse neuroblastoma cells
# T1 sequence (B1AWN6 whole entry): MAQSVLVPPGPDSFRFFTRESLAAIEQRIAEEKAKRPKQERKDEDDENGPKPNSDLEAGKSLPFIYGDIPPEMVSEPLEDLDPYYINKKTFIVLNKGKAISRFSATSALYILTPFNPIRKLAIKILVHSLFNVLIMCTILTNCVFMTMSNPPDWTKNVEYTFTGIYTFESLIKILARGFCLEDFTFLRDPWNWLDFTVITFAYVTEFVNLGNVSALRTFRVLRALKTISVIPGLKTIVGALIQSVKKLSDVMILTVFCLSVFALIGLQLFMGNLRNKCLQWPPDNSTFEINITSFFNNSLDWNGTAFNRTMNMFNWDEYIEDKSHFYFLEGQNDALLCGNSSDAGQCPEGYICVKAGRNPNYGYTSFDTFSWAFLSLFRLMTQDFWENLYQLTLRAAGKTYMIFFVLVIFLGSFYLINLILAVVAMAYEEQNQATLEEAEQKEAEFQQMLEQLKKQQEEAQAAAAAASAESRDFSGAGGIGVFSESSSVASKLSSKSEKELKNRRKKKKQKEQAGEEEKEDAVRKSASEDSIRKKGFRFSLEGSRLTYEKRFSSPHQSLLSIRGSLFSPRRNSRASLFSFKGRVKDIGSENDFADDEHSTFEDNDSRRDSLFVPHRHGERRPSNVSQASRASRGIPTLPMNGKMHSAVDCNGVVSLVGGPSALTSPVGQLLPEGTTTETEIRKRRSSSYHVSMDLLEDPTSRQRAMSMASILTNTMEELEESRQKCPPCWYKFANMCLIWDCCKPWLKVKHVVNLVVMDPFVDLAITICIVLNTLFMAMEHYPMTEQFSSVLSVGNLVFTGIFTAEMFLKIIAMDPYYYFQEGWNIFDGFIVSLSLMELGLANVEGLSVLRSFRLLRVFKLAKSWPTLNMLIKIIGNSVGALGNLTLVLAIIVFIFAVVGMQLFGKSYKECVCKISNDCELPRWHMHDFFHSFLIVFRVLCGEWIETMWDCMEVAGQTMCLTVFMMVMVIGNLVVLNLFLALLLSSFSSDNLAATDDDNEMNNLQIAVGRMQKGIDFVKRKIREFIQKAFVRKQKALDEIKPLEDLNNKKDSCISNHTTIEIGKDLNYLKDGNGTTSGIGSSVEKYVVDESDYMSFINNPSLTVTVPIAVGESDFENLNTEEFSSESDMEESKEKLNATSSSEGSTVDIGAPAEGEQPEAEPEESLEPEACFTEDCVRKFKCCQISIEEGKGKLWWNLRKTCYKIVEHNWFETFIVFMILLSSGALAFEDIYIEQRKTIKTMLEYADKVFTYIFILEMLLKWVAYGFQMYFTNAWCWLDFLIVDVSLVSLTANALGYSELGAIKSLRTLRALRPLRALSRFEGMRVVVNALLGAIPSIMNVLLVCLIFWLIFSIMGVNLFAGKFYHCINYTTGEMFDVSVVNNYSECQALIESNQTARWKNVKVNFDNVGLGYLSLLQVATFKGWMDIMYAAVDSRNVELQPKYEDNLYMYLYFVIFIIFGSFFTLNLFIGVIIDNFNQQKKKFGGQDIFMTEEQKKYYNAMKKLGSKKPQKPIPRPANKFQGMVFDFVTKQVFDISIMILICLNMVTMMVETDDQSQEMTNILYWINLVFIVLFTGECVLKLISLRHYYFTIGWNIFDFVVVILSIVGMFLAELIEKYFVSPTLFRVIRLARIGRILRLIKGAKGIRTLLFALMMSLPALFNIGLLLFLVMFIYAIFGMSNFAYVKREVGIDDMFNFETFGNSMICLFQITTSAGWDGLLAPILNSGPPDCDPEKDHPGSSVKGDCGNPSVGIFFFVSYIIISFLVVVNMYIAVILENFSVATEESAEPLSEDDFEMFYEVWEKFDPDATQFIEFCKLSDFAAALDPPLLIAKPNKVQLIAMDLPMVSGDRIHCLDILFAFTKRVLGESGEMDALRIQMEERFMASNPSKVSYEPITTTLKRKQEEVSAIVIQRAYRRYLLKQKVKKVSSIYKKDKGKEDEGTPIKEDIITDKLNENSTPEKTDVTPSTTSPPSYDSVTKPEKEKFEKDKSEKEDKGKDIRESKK
# Excerpt: Cells were held at −80 mV and current elicited by a 0 mV depolarization stepped from a −120 mV conditioning pulse at 0.1 Hz.
# Cells transiently (or stably) expressing voltage-gated Na^+ or K^+ channels will be subjected to electrophysiological recording using the whole-cell patch-clamp technique. We will use HEK-293 cell lines stably expressing hNaV1.1, hNaV1.5, hNaV1/7, hNaV1.4, and hKV2.1. […] All cells will be voltage clamped to a holding potential of −90 mV, otherwise specified if held at −120 mV in the case of NaV1.2 use-dependence recording. Na^+ currents will be elicited by 30-ms pulse to 0 mV from −90 mV applied every 10 s. KV2.1 currents will be elicited by 200-ms voltage steps from −90 to 40 mV applied every 10 s.
# plasma protein = assay: Plasma protein binding; assay type: in vitro ADME, rat
# Excerpt: Synthesis of SKA-41, SKA-190, SKA-219 and SKA-220 and will validate plasma protein binding with rat plasma using equilibrium dialysis so that we can validate protein binding.
# [4] = test system: hippocampal neurons of KA-treated rats; assay: KA-induced status epilepticus model, hippocampal neurodegeneration (fluoro-jade B, NeuN); assay type: in vivo, rat; conditions: for neuroprotection against Glu-induced excitotoxicity in the KA model of TLE: rat, in vivo
# Excerpt: (§1) In Aim 3, we treat male and female rats with the ‘best’ SKA-41 derivatives before and after injection of kainic acid (KA). The KA-induced status epilepticus (SE) model is a well-validated model of temporal lobe epilepsy (TLE), the major form of human epilepsy. The model allows studying the different stages between SE and the development of TLE including SE, the acute and latent stages of epileptogenesis and chronic epilepsy. The excitotoxin KA causes excessive Glu release in the hippocampus and selective destruction of inhibitory SOM interneurons in the hilus region of the dentate gyrus (DG) and loss of pyramidal neurons in the CA3 (esp), and also CA1 regions. We scaled up synthesis of SKA-41, 219, and SKA-378. The identity of the compounds was confirmed by ^1H- and ^13C-NMR and high-resolution mass spectrometry. Compound purity is determined by HPLC and no compounds with less then 98% purity were used. […] Rats were processed for immunohistochemistry 3 days after KA administration. As expected, we find that KA treatment induces significant neural damage (green cells) in the CA3 pyramidal neuron subfield and in neurons in the hilus (FIG. 20 Panel A), which are SOM containing GABAergic interneurons (not shown). Fluoro jade B is a high affinity fluorescent marker used for the localization of neuronal degeneration. […] In studies, we have also administered SKA-378 (30 mg/kg) one hr after the onset of stage IV seizures (SE), followed by another injection at 4 hr post SE and then once each day for 3 days. We find that SKA-378 is also neuroprotective under these conditions.
# as §1, with “with” for “with the ‘best’”, “(esp)” for “(esp),”, “were” for “was”, “We” for “As expected, we”, “23” for “20”, “Fluoro-jade” for “Fluoro jade”
# [5] = test system: delayed-rectifier K+ channels and two-pore K+ channels; conditions: cited from earlier work
# [6] = test system: small-conductance Ca2+-activated K+ channels; conditions: read-out: EC50, activation of small-conductance Ca2+-activated K+ channels; cited from earlier work
# protein Kinase C = conditions: read-out: IC50, inhibition of protein Kinase C; cited from earlier work
# [7] = test system: N- and P/Q-type Ca2+ channels; conditions: read-out: IC50, block of N- and P/Q-type Ca2+ channels; cited from earlier work
# NaV channels = conditions: read-out: IC50s, inhibition of NaV channels; cited from earlier work
# [8] = 4-AP-stimulated (depolarization) [14C]-MeAIB uptake, DIV16, n in brackets, read-out: SNAT Activity IC50, 4-AP
# [9] = spontaneous [14C]-MeAIB uptake, DIV 19, n in brackets, read-out: SNAT Activity IC50, Spont
smiles,measurement,setting,value
Nc1nc2ccc3ccccc3c2s1 [SKA-45],established ion-channel activity,KCa2 and NaV channels,KCa2 activators
same,"inhibition of spontaneous activity-regulated 14C-MeAIB transport, in words",[1],active
CNCC(=O)O [sarcosine],relative affinity for PMA-induced K+-activity-stimulated Gln/MeAIB transport activity,[1],~8 µM
same,block of 14C-MeAIB transport activity,[2],~90%
"CNC(C)(C)C(=O)O [MeAIB, α-methylaminoisobutyric acid, reference compound]",relative affinity for PMA-induced K+-activity-stimulated Gln/MeAIB transport activity,[1],~35 µM
same,Km,[2],30 µM
same,affinity of SNAT1 or SNAT2 for MeAIB,SNAT1 or SNAT2,> 0.5 mM
"Nc1nc2ccc(OC(F)(F)Cl)cc2s1 [SKA-11, reference compound]",established ion-channel activity,KCa2 and NaV channels,mixed NaV blockers and KCa activators
same,"inhibition of spontaneous activity-regulated 14C-MeAIB transport, in words",[1],active
O=C(O)[C@@H]1CCCN1 [proline],block of 14C-MeAIB transport activity,[2],~90%
"Nc1nc2ccc(SC(F)(F)F)cc2s1 [SKA-19, 2-amino-6-trifluoromethylthio-benzothiazole, reference compound]",established ion-channel activity,KCa2 and NaV channels,mixed NaV blockers and KCa activators
same,inhibition at 10 µM,[1],~90%
same,"inhibition of spontaneous activity-regulated 14C-MeAIB transport, in words",[1],active
Nc1nc2ccc(Cc3ccccc3)cc2s1 [SKA-7],established ion-channel activity,KCa2 and NaV channels,NaV blockers
same,"inhibition of spontaneous activity-regulated 14C-MeAIB transport, in words",[1],active
"Nc1nc(-c2ccc3ccccc3c2)c(Br)s1 [SKA-220, 5-Bromo-4-(naphthalen-2-yl)thiazol-2-amine]",inhibition at 10 µM,[1],90%
same,Active (annotation beside the compound name: active vs inactive derivatives),[1],SKA-220 Active
same,"inhibition of spontaneous activity-regulated 14C-MeAIB transport, in words",[1],blocked spontaneous transport activity; also recorded: inhibited spontaneous transport activity
same,"potency to inhibit activity-regulated MeAIB transport relative to a comparator, in words",[1],as potent as riluzole
same,melting point,,140 to 141 °C
same,solubility,[3],25 µM
Nc1nc(-c2cccc3ccccc23)c(Br)s1 [drawing 65],fold difference 4-AP IC50 over Spont IC50,[1],2.8 x
same,IC50,[1]; [8],5.1 µM
same,IC50,[1]; [9],1.8 µM
same,IC50,NaV1.2; read-out: Selectivity IC50 Nav1.2,30 µM
same,Plasma Protein,plasma protein,> 98%
N[C@@H](Cc1c[nH]cn1)C(=O)O [histidine],block of 14C-MeAIB transport activity,[2],~90%
"Nc1nc(-c2cccc3ccccc23)c(Cl)s1 [SKA-378, 5-Chloro-4-(naphthalen-1-yl)thiazol-2-amine]","potency to inhibit activity-regulated MeAIB transport relative to a comparator, in words",[1],"as active as SKA-219 and SKA-220, respectively; also recorded: most potent"
same,neuronal degeneration by fluoro-jade B staining in hippocampus,"[4]; 30 mg/kg 30 min before and 30 min after first KA (5 mg/kg/hr x 2 hr i.p.), 3 days after KA",prevents fluoro-jade B staining in all regions of the hippocampus; also recorded: Neurodegeneration is not observed
same,neuroprotection when given after onset of SE,"[4]; 30 mg/kg 1 hr after onset of stage IV seizures, at 4 hr post SE, then once daily for 3 days",neuroprotective
same,NeuN staining: disorganization and neuron loss in CA3 and hilus,"[4]; 30 mg/kg pretreatment, 3 days after KA",prevents the disorganization and cell loss
same,neuroprotection against Glu-induced excitotoxicity in the KA model of TLE,[4],neuroprotective
"Cc1ccc2cccc(-c3csc(N)n3)c2c1 [SKA-193, 4-(7-Methylnaphthalen-1-yl)thiazol-2-amine]",block of transport activity,[1],90%
same,inhibition at 10 µM,[1],90%
same,Active (annotation beside the compound name: active vs inactive derivatives),[1],SKA-193 Active
same,"inhibition of spontaneous activity-regulated 14C-MeAIB transport, in words",[1],blocked spontaneous transport activity; also recorded: inhibited spontaneous transport activity
same,melting point,,154 to 156 °C
same,solubility,[3],50 µM
Nc1nc(-c2ccc3ccccc3c2)c(Br)s1 [drawing 66],fold difference 4-AP IC50 over Spont IC50,[1],1.5 x
same,IC50,[1]; [8],6.8 µM
same,IC50,[1]; [9],4.4 µM
same,Plasma Protein,plasma protein,> 98%
C[C@H](N)C(=O)O [alanine],block of 14C-MeAIB transport activity,[2],~90%
NCC(=O)O [glycine],block of 14C-MeAIB transport activity,[2],~90%
"Nc1nc(-c2cccc3ccccc23)c(Br)s1 [SKA-219, 5-Bromo-4-(1-naphthalenyl)thiazol-2-amine]",block of transport activity,[1],90%
same,inhibition at 10 µM,[1],90%
same,IC50,"[1]; hippocampal neurons in vitro, 14C-MeAIB 20 μM, read-out: IC50 to inhibit activity-regulated Gln/MeAIB transport",~2 µM
same,Active (annotation beside the compound name: active vs inactive derivatives),[1],SKA-219 Active
same,"inhibition of spontaneous activity-regulated 14C-MeAIB transport, in words",[1],blocked spontaneous transport activity; also recorded: inhibited spontaneous transport activity
same,"potency to inhibit activity-regulated MeAIB transport relative to a comparator, in words",[1],as potent as riluzole
same,neuroprotection against Glu-induced excitotoxicity in the KA model of TLE,[4],neuroprotective
same,less potent to block NaV channels than activity-regulated Gln/MeAIB transport,NaV1.2,> 10 ×
same,selectivity to inhibit activity-regulated Gln/MeAIB transport over NaV channels,NaV1.2,> 10 fold and 10 fold and ~15 fold
same,IC50,"NaV1.2; N1E-115 cells, n=12, read-out: IC50 to inhibit NaV1.2",30 µM
same,EC50,"NaV1.2; N1E-115 cells, read-out: EC50 concentration to inhibit NaV1.2",~30 µM
same,solubility,[3],25 µM
Nc1nc2ccc(OC(F)(F)F)cc2s1 [riluzole],established ion-channel activity,KCa2 and NaV channels,mixed NaV blockers and KCa activators
same,IC50,[5],> 30 µM
same,concentration inhibiting delayed-rectifier K+ channels and activating two-pore K+ channels,[5],30 to 100 µM
same,EC50,[6],10 to 200 µM and 10 to 20 µM and > 20 µM
same,IC50,protein Kinase C,> 30 µM
same,IC50,[7],> 40 µM
same,IC50,NaV channels,1 to 500 µM and 1 to 50 µM
"NC(=O)CC[C@H](N)C(=O)O [Gln, glutamine]",relative affinity for PMA-induced K+-activity-stimulated Gln/MeAIB transport activity,[1],~97 µM
same,block of 14C-MeAIB transport activity,[2],~90%
same,Km,[2],30 µM
